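Cells were grown in 96-well plates and exposed to each compound for 48 hours at five concentrations; endpoints were interpolated linearly between bracketing concentrations, or set to the highest concentration if not reached. GI50 = concentration required for 50% inhibition of growth. At the TGI there is no net growth.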
Legend:
Experiment in all cases: NCI-60 cell line screen, 48 h
[1] = system: EKVX NSCLC
[2] = system: SN12C renal
[3] = system: OVCAR-5 ovarian
[4] = system: 786-0 renal
[5] = system: A549 NSCLC
[6] = system: COLO 205 colon
[7] = system: MALME-3M melanoma
[8] = system: CCRF-CEM leukemia
[9] = system: HOP-62 NSCLC
[10] = system: MCF7 breast

Compound	TGI [1] [µM]	TGI [2] [µM]	TGI [3] [µM]	TGI [4] [µM]	TGI [5] [µM]	TGI [6] [µM]	TGI [7] [µM]	TGI [8] [µM]	TGI [9] [µM]	GI50 [1] [µM]	GI50 [2] [µM]	GI50 [3] [µM]	GI50 [4] [µM]	GI50 [10] [µM]	TGI [10] [µM]	GI50 [5] [µM]	GI50 [6] [µM]	GI50 [9] [µM]	GI50 [7] [µM]	GI50 [8] [µM]
CNC(=O)OCc1[nH]ccc2c(C)c3nc4ccc(OC)cc4c3cc12	> 100	> 100	> 100	20.5	> 100	> 28.1	> 77.8	13.6	56	–	–	–	–	–	–	–	–	–	–	–
CC(=O)O[C@H]1CC[C@@]2(C)C(=CC[C@@H]3C2CC[C@]2(C)Nc4[nH]ncc4CC32)C1 (some centres not stated)	> 100	–	> 100	> 100	> 100	–	86.1	40.3	> 100	–	–	–	–	–	–	–	–	–	–	–
O=C(O)c1ccc(C2C3C=CC(C3)C2[N+](=O)[O-])cc1 (configuration not stated)	> 100	> 100	–	> 100	> 100	> 100	> 100	> 100	> 100	–	–	–	–	–	–	–	–	–	–	–
COc1ccccc1NC(=O)C1=C(C)NC(C)=C(C(=O)Nc2ccccc2OC)C1c1cccc2c1OCO2	> 100	> 100	> 100	> 100	> 100	> 100	> 100	> 100	> 100	–	–	–	–	–	–	–	–	–	–	–
Cn1c(=O)oc2cc(C3CCC(=O)N3Cc3ccc(Cl)cc3)ccc21 (configuration not stated)	> 100	> 100	> 100	> 100	> 100	> 100	> 100	> 100	> 100	–	–	–	–	–	–	–	–	–	–	–
Nc1nc(SCCC/C=C/I)nc2c1ncn2C1OC(CO)C(O)C1O (configuration not stated)	–	> 202	> 202	> 202	> 202	> 202	> 202	> 202	> 202	–	–	–	–	–	–	–	–	–	–	–
COc1cc2c3c(n(CCCNCCNCCCN)c(=O)c2cc1OC)-c1cc2c(cc1C3=O)OCO2	69.9	7.17	21.4	14.5	> 100	17.9	–	–	15.6	29.8	1.66	3.82	3.24	2.14	> 100	10.8	3.57	2.88	–	–
COC(=O)C1=Cc2c(cc(OC)c(OC)c2OC)[C@H](c2ccc(OC)c(OC)c2OC)C1C(=O)OC (some centres not stated)	> 100	> 100	> 100	> 100	> 100	> 100	> 100	> 100	> 100	–	–	–	–	–	–	–	–	–	–	–
C=C1C(=O)O[C@H]2C[C@@H]1CCC1(C)OC1CC/C(C)=C/CC[C@H]2C (some centres not stated)	44.3	35.5	30	33.1	39	36.2	–	–	34.5	24.3	19	15.9	18.4	18	36.6	19.7	15.6	18.9	–	–
Clc1cc(Cl)cc(Nc2nc3ccccc3nc2-c2cccs2)c1	> 100	> 100	> 100	31.7	> 100	32.9	> 100	> 100	> 100	–	–	–	–	–	–	–	–	–	–	–
CN(CCN(C)C(=O)CCOS(C)(=O)=O)C(=O)CCOS(C)(=O)=O	> 100	> 100	> 100	> 100	> 100	> 100	> 100	> 100	> 100	–	–	–	–	–	–	–	–	–	–	–
CN(C)CCNC(=O)c1nc([N+](=O)[O-])cn1C	–	> 100	> 100	> 100	> 100	> 100	> 100	> 100	> 100	–	–	–	–	–	> 100	–	–	–	–	–
CCC[CH2][Sn]1([CH2]CCC)[O]C(=O)CN=Cc2ccccc2[O]1	1.81	1.13	2.98	1.73	3.55	1.27	0.469	–	> 100	0.477	0.292	1.63	0.517	–	–	1.81	0.298	4.01	0.141	–
COc1cc(OC)cc(-c2cncn2-c2ccc(-c3nc4cc(OC)cc(OC)c4s3)cc2)c1	–	> 100	> 100	> 100	–	–	–	–	34.5	–	> 100	> 100	7.6	3.82	> 100	–	–	6.65	–	–
O=C(O)CCCNS(=O)(=O)c1ccc2ccccc2c1	> 100	> 100	> 100	> 100	> 100	> 100	> 100	> 100	–	–	–	–	–	–	–	–	–	–	–	–
CO/N=C(/COc1c(-c2ccccc2)oc2ccccc2c1=O)c1ccc(F)cc1	> 100	> 100	> 100	64	> 100	> 100	> 100	67.9	67.8	> 100	35.1	> 100	25.1	–	–	57.4	> 100	27.3	52.9	12.6
CCOC(=O)[C@H]1Nc2ccc(Cl)cc2[C@H]2c3ccccc3O[C@H]21	> 100	> 100	> 100	> 100	> 100	> 100	–	–	> 100	–	–	–	–	–	–	–	–	–	–	–
Cc1cc2c(cc1Br)C1(C)CCC(C)C1(C)O2 (configuration not stated)	> 100	80.9	> 100	66.8	> 100	29.8	42.1	56.1	> 100	–	–	–	–	–	–	–	–	–	–	–
CCOC(=O)C(=O)Nc1ccc(Cl)c(C(F)(F)F)c1	> 100	> 100	> 100	> 100	> 100	> 100	> 100	> 100	> 100	–	–	–	–	–	–	–	–	–	–	–
CCCCCCN1CCN(Cc2ccc(N(CC)CC)cc2)C(=O)C1=O	–	93.9	> 100	> 100	> 100	10.1	> 100	> 100	> 100	–	5.19	5.41	4.88	0.58	62.2	4.29	0.759	4.97	4.25	2.69
c1cncc(CNc2ncn[nH]2)c1	> 100	> 100	> 100	> 100	> 100	> 100	> 100	–	> 100	–	–	–	–	–	> 100	–	–	–	–	–

Source: PubChem BioAssay (NCI)
